Source: ChEMBL document CHEMBL1201861, “Genomics of Drug Sensitity in Cancer screening data, Wellcome Trust Sanger Institute”

Key:
Test in all cases: cells
Conditions in all cases: Homo sapiens
DOK = type: functional, cell-based;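 note: cell viability assay read-out, values reflect inhibition of cell growth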
Description: SANGER: Inhibition of human DOK cell growth in a cell viability assay.

DU-145 = type: functional, cell-based
Description: SANGER: Inhibition of human DU-145 cell growth in a cell viability assay.

G-401 = type: functional, cell-based
Description: SANGER: Inhibition of human G-401 cell growth in a cell viability assay.

GMS-10 = type: functional, cell-based;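 note: growth inhibition of GMS-10 cells, read out as cell viability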
Description: SANGER: Inhibition of human GMS-10 cell growth in a cell viability assay.

HCC1419 = type: functional, cell-based;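 note: growth inhibition of human HCC1419 cells, read out as cell viability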
Description: SANGER: Inhibition of human HCC1419 cell growth in a cell viability assay.

HN = type: functional, cell-based
Description: SANGER: Inhibition of human HN cell growth in a cell viability assay.

HOP-92 = type: functional, cell-based;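 note: cell viability readout, with IC50 reflecting inhibition of HOP-92 cell growth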
Description: SANGER: Inhibition of human HOP-92 cell growth in a cell viability assay.

HT-29 = type: functional, cell-based;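 note: growth inhibition of human HT-29 cells, read out by a cell viability assay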
Description: SANGER: Inhibition of human HT-29 cell growth in a cell viability assay.

HT55 = type: functional, cell-based;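 note: cell viability readout measuring growth inhibition of human HT55 cells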
Description: SANGER: Inhibition of human HT55 cell growth in a cell viability assay.

HTC-C3 = type: functional, cell-based;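 note: inhibition of cell growth, read out with a cell viability assay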
Description: SANGER: Inhibition of human HTC-C3 cell growth in a cell viability assay.

HuCCT-1 = type: functional, cell-based, HuCCT1;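 note: growth inhibition of HuCCT-1 cells, read out by a cell viability assay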
Description: SANGER: Inhibition of human HuCCT1 cell growth in a cell viability assay.

IGR-1 = type: functional, cell-based;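 note: growth inhibition of human IGR-1 cells, read out with a cell viability assay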
Description: SANGER: Inhibition of human IGR-1 cell growth in a cell viability assay.

J82 = type: functional, cell-based;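 note: growth inhibition of J82 cells, read out with a cell viability assay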
Description: SANGER: Inhibition of human J82 cell growth in a cell viability assay.

KOSC-2 = type: functional, cell-based;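 note: growth inhibition of KOSC-2 cells, read out by a cell viability assay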
Description: SANGER: Inhibition of human KOSC-2 cell growth in a cell viability assay.

LU-135 = type: functional, cell-based
Description: SANGER: Inhibition of human LU-135 cell growth in a cell viability assay.

MDA-MB-415 = type: functional, cell-based
ME-180 = type: functional, cell-based;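 note: cell viability assay measuring growth inhibition of ME-180 cells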
Description: SANGER: Inhibition of human ME-180 cell growth in a cell viability assay.

MEL-JUSO = type: functional, cell-based;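 note: growth inhibition of human MEL-JUSO cells, read out with a cell viability assay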
Description: SANGER: Inhibition of human MEL-JUSO cell growth in a cell viability assay.

MIA PaCa-2 = type: functional, cell-based;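 note: growth inhibition of MIA PaCa-2 cells, read out with a cell viability assay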
Description: SANGER: Inhibition of human MIA-PaCa-2 cell growth in a cell viability assay.

NCI-H1755 = type: functional, cell-based;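 note: cell viability readout used to measure growth inhibition of NCI-H1755 cells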
Description: SANGER: Inhibition of human NCI-H1755 cell growth in a cell viability assay.

NCI-H1792 = type: functional, cell-based;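 note: growth inhibition of human NCI-H1792 cells, read out as cell viability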
Description: SANGER: Inhibition of human NCI-H1792 cell growth in a cell viability assay.

NCI-H2030 = type: functional, cell-based;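 note: growth inhibition of human NCI-H2030 cells, read out by a cell viability assay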
Description: SANGER: Inhibition of human NCI-H2030 cell growth in a cell viability assay.

NCI-H2291 = type: functional, cell-based
Description: SANGER: Inhibition of human NCI-H2291 cell growth in a cell viability assay.

NCI-H2405 = type: functional, cell-based;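 note: growth inhibition of the human cell line, read out with a cell viability assay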
Description: SANGER: Inhibition of human NCI-H2405 cell growth in a cell viability assay.

NCI-H596 = type: functional, cell-based;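 note: growth inhibition of NCI-H596 cells, read out with a cell viability assay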
Description: SANGER: Inhibition of human NCI-H596 cell growth in a cell viability assay.

NCI-H650 = type: functional, cell-based;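 note: growth inhibition of NCI-H650 cells, read out by a viability assay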
Description: SANGER: Inhibition of human NCI-H650 cell growth in a cell viability assay.

RD = type: functional, cell-based
Description: SANGER: Inhibition of human RD cell growth in a cell viability assay.

RT-112 = type: functional, cell-based
Description: SANGER: Inhibition of human RT-112 cell growth in a cell viability assay.

SK-HEP1 = type: functional, cell-based, SK-HEP-1;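 note: cell viability readout used to quantify reduction in proliferation of human SK-HEP-1 cells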
Description: SANGER: Inhibition of human SK-HEP-1 cell growth in a cell viability assay.

SK-MEL-30 = type: functional, cell-based;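 note: growth inhibition of SK-MEL-30 cells, determined with a cell viability assay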
Description: SANGER: Inhibition of human SK-MEL-30 cell growth in a cell viability assay.

SNU-387 = type: functional, cell-based
Description: SANGER: Inhibition of human SNU-387 cell growth in a cell viability assay.

SNU-423 = type: functional, cell-based
Description: SANGER: Inhibition of human SNU-423 cell growth in a cell viability assay.

SW1088 = type: functional, cell-based;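 note: growth inhibition of human SW1088 cells, read out by a cell viability assay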
Description: SANGER: Inhibition of human SW1088 cell growth in a cell viability assay.

SW1417 = type: functional, cell-based;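 note: growth inhibition of human SW1417 cells, read out with a cell viability assay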
Description: SANGER: Inhibition of human SW1417 cell growth in a cell viability assay.

SW1573 = type: functional, cell-based;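 note: growth inhibition of SW1573 cells, read out with a cell viability assay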
Description: SANGER: Inhibition of human SW1573 cell growth in a cell viability assay.

SW-620 = type: functional, cell-based;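 note: growth inhibition of human SW-620 cells, measured by a cell viability assay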
Description: SANGER: Inhibition of human SW620 cell growth in a cell viability assay.

TCC-SUP = type: functional, cell-based;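 note: growth inhibition of TCC-SUP cells, read out with a cell viability assay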
Description: SANGER: Inhibition of human TCCSUP cell growth in a cell viability assay.

A 172 = type: functional, cell-based;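 note: growth inhibition of A172 cells, measured with a cell viability readout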
Description: SANGER: Inhibition of human A172 cell growth in a cell viability assay.

BT-549 = type: functional, cell-based
Description: SANGER: Inhibition of human BT-549 cell growth in a cell viability assay.

C-33-A = type: functional, cell-based;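 note: cell viability assay measuring growth inhibition of C-33-A cells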
Description: SANGER: Inhibition of human C-33-A cell growth in a cell viability assay.

C3A = type: functional, cell-based;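 note: growth inhibition of C3A human cells, quantified with a cell viability readout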
Description: SANGER: Inhibition of human C3A cell growth in a cell viability assay.

CAKI-1 = type: functional, cell-based;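 note: growth inhibition of CAKI-1 cells, measured by a cell viability assay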
Description: SANGER: Inhibition of human CAKI-1 cell growth in a cell viability assay.

CAL-33 = type: functional, cell-based;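 note: growth inhibition of CAL-33 cells, read out with a cell viability assay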
Description: SANGER: Inhibition of human CAL-33 cell growth in a cell viability assay.

CAL-54 = type: functional, cell-based;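 note: growth inhibition of CAL-54 cells, read out by a viability measurement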
Description: SANGER: Inhibition of human CAL-54 cell growth in a cell viability assay.

CAL-62 = type: functional, cell-based;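 note: growth inhibition of CAL-62 cells, read out with a cell viability assay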
Description: SANGER: Inhibition of human CAL-62 cell growth in a cell viability assay.

Compound: Cn1cc(/C=C2\C(=O)Nc3cccnc32)c2ccccc21
- IC50 (DOK): > 2000 nM
- IC50 (DU-145): > 2000 nM
- IC50 (G-401): > 2000 nM
- IC50 (GMS-10): > 2000 nM
- IC50 (HCC1419): > 2000 nM
- IC50 (HN): > 2000 nM
- IC50 (HOP-92): > 2000 nM
- IC50 (HT-29): > 2000 nM
- IC50 (HT55): > 2000 nM
- IC50 (HTC-C3): > 2000 nM
- IC50 (HuCCT-1): > 2000 nM
- IC50 (IGR-1): > 2000 nM
- IC50 (J82): > 2000 nM
- IC50 (KOSC-2): > 2000 nM
- IC50 (LU-135): > 2000 nM
- IC50 (MDA-MB-415): > 2000 nM
- IC50 (ME-180): > 2000 nM
- IC50 (MEL-JUSO): > 2000 nM
- IC50 (MIA PaCa-2): > 2000 nM
- IC50 (NCI-H1755): > 2000 nM
- IC50 (NCI-H1792): > 2000 nM
- IC50 (NCI-H2030): > 2000 nM
- IC50 (NCI-H2291): > 2000 nM
- IC50 (NCI-H2405): > 2000 nM
- IC50 (NCI-H596): > 2000 nM
- IC50 (NCI-H650): > 2000 nM
- IC50 (RD): > 2000 nM
- IC50 (RT-112): > 2000 nM
- IC50 (SK-HEP1): > 2000 nM
- IC50 (SK-MEL-30): > 2000 nM
- IC50 (SNU-387): > 2000 nM
- IC50 (SNU-423): > 2000 nM
- IC50 (SW1088): > 2000 nM
- IC50 (SW1417): > 2000 nM
- IC50 (SW1573): > 2000 nM
- IC50 (SW-620): > 2000 nM
- IC50 (TCC-SUP): > 2000 nM
- IC50 (A 172): > 2000 nM
- IC50 (BT-549): > 2000 nM
- IC50 (C-33-A): > 2000 nM
- IC50 (C3A): > 2000 nM
- IC50 (CAKI-1): > 2000 nM
- IC50 (CAL-33): > 2000 nM
- IC50 (CAL-54): > 2000 nM
- IC50 (CAL-62): > 2000 nM

Compound: COc1cc(Nc2c(C#N)cnc3cc(OCCCN4CCN(C)CC4)c(OC)cc23)c(Cl)cc1Cl [BOSUTINIB]
- IC50 (DOK): 378 nM
- IC50 (DU-145): > 2000 nM
- IC50 (G-401): > 2000 nM
- IC50 (GMS-10): > 2000 nM
- IC50 (HCC1419): > 2000 nM
- IC50 (HN): 1900 nM
- IC50 (HOP-92): > 2000 nM
- IC50 (HT-29): > 2000 nM
- IC50 (HT55): > 2000 nM
- IC50 (HTC-C3): > 2000 nM
- IC50 (HuCCT-1): > 2000 nM
- IC50 (IGR-1): > 2000 nM
- IC50 (J82): > 2000 nM
- IC50 (KOSC-2): 1320 nM
- IC50 (LU-135): > 2000 nM
- IC50 (MDA-MB-415): > 2000 nM
- IC50 (ME-180): > 2000 nM
- IC50 (MEL-JUSO): > 2000 nM
- IC50 (MIA PaCa-2): > 2000 nM
- IC50 (NCI-H1755): > 2000 nM
- IC50 (NCI-H1792): > 2000 nM
- IC50 (NCI-H2030): > 2000 nM
- IC50 (NCI-H2291): > 2000 nM
- IC50 (NCI-H2405): > 2000 nM
- IC50 (NCI-H596): > 2000 nM
- IC50 (NCI-H650): > 2000 nM
- IC50 (RD): > 2000 nM
- IC50 (RT-112): > 2000 nM
- IC50 (SK-HEP1): > 2000 nM
- IC50 (SK-MEL-30): > 2000 nM
- IC50 (SNU-387): > 2000 nM
- IC50 (SNU-423): > 2000 nM
- IC50 (SW1088): > 2000 nM
- IC50 (SW1417): > 2000 nM
- IC50 (SW1573): > 2000 nM
- IC50 (SW-620): > 2000 nM
- IC50 (TCC-SUP): > 2000 nM
- IC50 (A 172): > 2000 nM
- IC50 (BT-549): > 2000 nM
- IC50 (C-33-A): > 2000 nM
- IC50 (C3A): > 2000 nM
- IC50 (CAKI-1): > 2000 nM
- IC50 (CAL-33): 1190 nM
- IC50 (CAL-54): 1660 nM
- IC50 (CAL-62): > 2000 nM

Compound: C[C@]12O[C@H](C[C@]1(O)CO)n1c3ccccc3c3c4c(c5c6ccccc6n2c5c31)CNC4=O [LESTAURTINIB]
- IC50 (DOK): 297 nM
- IC50 (DU-145): > 2000 nM
- IC50 (G-401): 439 nM
- IC50 (GMS-10): 463 nM
- IC50 (HCC1419): > 2000 nM
- IC50 (HN): 182 nM
- IC50 (HOP-92): 909 nM
- IC50 (HT-29): 666 nM
- IC50 (HT55): > 2000 nM
- IC50 (HTC-C3): 186 nM
- IC50 (HuCCT-1): 862 nM
- IC50 (IGR-1): 1490 nM
- IC50 (J82): > 2000 nM
- IC50 (KOSC-2): 327 nM
- IC50 (LU-135): > 2000 nM
- IC50 (MDA-MB-415): > 2000 nM
- IC50 (ME-180): 737 nM
- IC50 (MEL-JUSO): 503 nM
- IC50 (MIA PaCa-2): 862 nM
- IC50 (NCI-H1755): 185 nM
- IC50 (NCI-H1792): 880 nM
- IC50 (NCI-H2030): 1320 nM
- IC50 (NCI-H2291): 1800 nM
- IC50 (NCI-H2405): 1820 nM
- IC50 (NCI-H596): > 2000 nM
- IC50 (NCI-H650): 677 nM
- IC50 (RD): > 2000 nM
- IC50 (RT-112): 464 nM
- IC50 (SK-HEP1): 31.3 nM
- IC50 (SK-MEL-30): 512 nM
- IC50 (SNU-387): 601 nM
- IC50 (SNU-423): 731 nM
- IC50 (SW1088): 874 nM
- IC50 (SW1417): 1170 nM
- IC50 (SW1573): 1070 nM
- IC50 (SW-620): 557 nM
- IC50 (TCC-SUP): 1850 nM
- IC50 (A 172): 1940 nM
- IC50 (BT-549): 163 nM
- IC50 (C-33-A): > 2000 nM
- IC50 (C3A): > 2000 nM
- IC50 (CAKI-1): 334 nM
- IC50 (CAL-33): 730 nM
- IC50 (CAL-54): 178 nM
- IC50 (CAL-62): 254 nM

Compound: C[C@]1(c2nc3c(C(N)=O)cccc3[nH]2)CCCN1 [VELIPARIB]
- IC50 (DOK): > 5000 nM
- IC50 (DU-145): > 5000 nM
- IC50 (G-401): > 5000 nM
- IC50 (GMS-10): > 5000 nM
- IC50 (HCC1419): > 5000 nM
- IC50 (HN): > 5000 nM
- IC50 (HOP-92): > 5000 nM
- IC50 (HT-29): > 5000 nM
- IC50 (HT55): > 5000 nM
- IC50 (HTC-C3): > 5000 nM
- IC50 (HuCCT-1): > 5000 nM
- IC50 (IGR-1): > 5000 nM
- IC50 (J82): > 5000 nM
- IC50 (KOSC-2): > 5000 nM
- IC50 (LU-135): > 5000 nM
- IC50 (MDA-MB-415): > 5000 nM
- IC50 (ME-180): > 5000 nM
- IC50 (MEL-JUSO): > 5000 nM
- IC50 (MIA PaCa-2): > 5000 nM
- IC50 (NCI-H1755): > 5000 nM
- IC50 (NCI-H1792): > 5000 nM
- IC50 (NCI-H2030): > 5000 nM
- IC50 (NCI-H2291): > 5000 nM
- IC50 (NCI-H2405): > 5000 nM
- IC50 (NCI-H596): > 5000 nM
- IC50 (NCI-H650): > 5000 nM
- IC50 (RD): > 5000 nM
- IC50 (RT-112): > 5000 nM
- IC50 (SK-HEP1): > 5000 nM
- IC50 (SK-MEL-30): > 5000 nM
- IC50 (SNU-387): > 5000 nM
- IC50 (SNU-423): > 5000 nM
- IC50 (SW1088): > 5000 nM
- IC50 (SW1417): > 5000 nM
- IC50 (SW1573): > 5000 nM
- IC50 (SW-620): > 5000 nM
- IC50 (TCC-SUP): > 5000 nM
- IC50 (A 172): > 5000 nM
- IC50 (BT-549): > 5000 nM
- IC50 (C-33-A): > 5000 nM
- IC50 (C3A): > 5000 nM
- IC50 (CAKI-1): > 5000 nM
- IC50 (CAL-33): > 5000 nM
- IC50 (CAL-54): > 5000 nM
- IC50 (CAL-62): > 5000 nM
